Measured values reported in patent publication US11925629B2, “Heterocyclic inhibitors of ERK1 and ERK2 and their use in the treatment of cancer” (Asana Biosciences, LLC, priority 2015, dated 2024).
pIC50: −log10 of the molar value.

Legend:
Assay type in all cases: cell-based, human
[1] = tested on: HT-29 (colorectal carcinoma, B-RafV600E) cells; assay: Cell proliferation (Alamar Blue) assay, HT-29; details: Homo sapiens, HT-29, HT29 cells
In short: (§1)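 Fluorescence read-out (ex 540 nm, em 590 nm) after 1-3 h with 1× Alamar Blue, following 72 h compound exposure at 37° C./5% CO2. Compounds tested at typically 0.0005 to 10 uM, 3-fold steps; IC50 by sigmoidal dose-response (variable slope).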

[2] = tested on: HCT116 (colorectal carcinoma, K Ras G13D) cells; assay: Cell proliferation (Alamar Blue) assay, HCT116; details: Homo sapiens, HCT-116, HCT116 cells
In short: as §1

[3] = tested on: phosphorylation of RSK1(S380) (the downstream target of ERK1/2); assay: Phospho-RSK1(S380) ELISA assay in HT-29 cells; details: Homo sapiens, HT-29, HT29 cells, phospho-RSK1(S380); read-out: Mechanistic Cell Assay RSK1 Phos HT29 IC50
In short: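 HT-29 colorectal carcinoma cells (B-RafV600E), plated overnight at 37° C./5% CO2, were treated with compound dilutions for 2 h. Lysates were analysed by phospho-RSK1(Ser380) sandwich ELISA with absorbance at 450 nm. IC50 came from a sigmoidal variable-slope dose-response fit.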

Compound | pIC50 [1] | pIC50 [2] | pIC50 [3]
O=C(N[C@H](CO)c1cccc(Cl)c1)c1ccn(-c2ccnc(NC3CCOC3)c2)c1 (stereo partly drawn) [Example 188, N-((S)-1-(3-chlorophenyl)-2-hydroxyethyl)-1-(2-((tetrahydrofuran-3-yl)amino)pyridin-4-yl)-1H-pyrrole-3-carboxamide] | < 5.60 | < 5.60 | < 5.60
Cc1cnc(Nc2ccc(F)c(C(=O)N3CCN(C)CC3)c2)nc1-n1ccc(C(=O)NC(CO)c2cccc(Cl)c2)c1 (stereo not drawn) [Example 179, N-(1-(3-chlorophenyl)-2-hydroxyethyl)-1-(2-((4-fluoro-3-(4-methylpiperazine-1-carbonyl)phenyl)amino)-5-methylpyrimidin-4-yl)-1H-pyrrole-3-carboxamide] | 5.60 to 6.30 | 5.60 to 6.30 | 5.60 to 6.30
Cc1cn(-c2nc(Nc3ccc(F)cc3)ncc2C)cc1C(=O)NC(CO)c1cccc(Cl)c1 (stereo not drawn) [Example 107, N-(1-(3-chlorophenyl)-2-hydroxy-ethyl)-1-(2-((4-fluoro-phenyl)amino)-5-methyl-pyrimidin-4-yl)-4-methyl-1H-pyrrole-3-carboxamide] | 5.60 to 6.30 | 5.60 to 6.30 | 5.60 to 6.30
Cc1cnc(Nc2ccc(F)cc2Cl)cc1-n1ccc(C(=O)NC(CO)c2cccc(Cl)c2)c1 (stereo not drawn) [Example 91, 1-(2-((2-chloro-4-fluorophenyl)amino)-5-methyl-pyridin-4-yl)-N-(1-(3-chlorophenyl)-2-hydroxy-ethyl)-1H-pyrrole-3-carboxamide] | 5.60 to 6.30 | < 5.60 | 5.60 to 6.30
COc1c(F)cccc1Nc1ncc(C)c(-n2ccc(C(=O)NC(CO)c3cccc(Cl)c3)c2)n1 (stereo not drawn) [Example 143, N-(1-(3-chloro-phenyl)-2-hydroxy-ethyl)-1-(2-((3-fluoro-2-methoxy-phenyl)amino)-5-methyl-pyrimidin-4-yl)-1H-pyrrole-3-carboxamide] | 5.60 to 6.30 | 6.30 to 6.60 | 6.30 to 6.60

Further lines, results first:

pIC50 [1] | pIC50 [2] | pIC50 [3] | Compound
5.60 to 6.30 | 5.60 to 6.30 | 6.30 to 6.60 | Cc1cnc(Nc2ccc3c(c2)OC(F)(F)O3)nc1-n1ccc(C(=O)NC(CO)c2ccccc2)c1 (stereo not drawn) [Example 63, 1-(2-((2,2-difluoro-benzo[d][1,3]dioxol-5-yl)amino)-5-methyl-pyrimidin-4-yl)-N-(2-hydroxy-1-phenylethyl)-1H-pyrrole-3-carboxamide]
6.30 to 6.60 | 5.60 to 6.30 | 6.60 to 7.00 | Cc1cnc(Nc2ccc(F)cc2)nc1-n1cnc(C(=O)NC(CO)c2cccc(Cl)c2)c1 (stereo not drawn) [Example 155, N-(1-(3-chlorophenyl)-2-hydroxy-ethyl)-1-(2-((4-fluoro-phenyl)amino)-5-methyl-pyrimidin-4-yl)-1H-imidazole-4-carboxamide]
≥ 7.00 | 6.60 to 7.00 | ≥ 7.00 | Cc1cnc(NC2CCOCC2)nc1-n1cnc(C(=O)NCc2cccc(Cl)c2CN)c1 [Example 285, N-(2-(aminomethyl)-3-chlorobenzyl)-1-(5-methyl-2-((tetrahydro-2H-pyran-4-yl)amino)pyrimidin-4-yl)-1H-imidazole-4-carboxamide]
6.30 to 6.60 | 5.60 to 6.30 | 6.30 to 6.60 | Cc1cnc(Nc2ccc3c(c2)OC(C)(C)O3)nc1-n1ccc(C(=O)NC(CO)c2ccccc2)c1 (stereo not drawn) [Example 95, 1-(2-((2,2-dimethyl-benzo[d][1,3]dioxol-5-yl)-amino)-5-methyl-pyrimidin-4-yl)-N-(2-hydroxy-1-phenylethyl)-1H-pyrrole-3-carboxamide]
6.30 to 6.60 | 5.60 to 6.30 | 5.60 to 6.30 | Cc1cnc(Nc2ccc(C3CCNCC3)c(F)c2)nc1-n1ccc(C(=O)NC(CO)c2cccc(Cl)c2)c1 (stereo not drawn) [Example 216, N-(1-(3-chlorophenyl)-2-hydroxyethyl)-1-(2-((3-fluoro-4-(piperidin-4-yl)phenyl)amino)-5-methylpyrimidin-4-yl)-1H-pyrrole-3-carboxamide]
